In PubChem BioAssay AID493085 (Broad Institute, 2011):
Records with an inconclusive call do not appear. Calls of active or inactive are those of the source.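 How the source made its calls: active means falling-signal curve with half-maximal concentration at or below ten times the top tested dose; inconclusive means flat fit at 30 to 70% inhibition, or poor fit; inactive means signal rise, flat within 30%, or potency beyond limit.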

test system: NIH3T3 R4 HSE-GFP/Tet-RFP reporter, fluorescence, 48 h; test: dox-induced RFP signal loss in R4-3T3 cells – cell-based, NIH3T3 R4, HSE-GFP and Tet-On RFP, cherry-pick, set 3, dose response (AID 493085);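 further: cells heat shocked 2 h at 42 °C with doxycycline to induce reporters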

Row | Structure (SMILES) | AC50
1 | CC(=O)c1ccc(NC(=O)C2CCN(S(=O)(=O)c3cccc4cccnc34)CC2)cc1 | > 19.5 µM (inactive)
2 | COc1c(N2CCN(C(=S)NC3CC4CCC3C4)C(C)C2)c(F)cc2c(=O)c(C(=O)O)cn(C3CC3)c12 (stereo unspecified) | 17.9 µM
3 | COc1ccc(CN2CCC(C(=O)Nc3ccc(Oc4cccnc4)cc3)CC2)c(C)c1C | 17.2 µM
4 | CCCCn1c(=O)[nH]c(=O)c2c1nc(Cn1ncc(Cl)c(Cl)c1=O)n2CCC | 18.2 µM
5 | CCOC(=O)N=Nc1c2ccccc2c2nc3no[nH]c3nc12 | 1.91 µM
6 | Cc1cc(C)c2nc(C(F)(F)F)c(C#N)c(N)c2c1 | 1.54 µM
7 | COc1ccc(N(Cc2cc3cc(OC)ccc3[nH]c2=O)S(=O)(=O)c2ccc(NC(C)=O)cc2)cc1 | 14.3 µM
8 | O=c1cc(-c2ccccc2)c2ccc(O)cc2o1 | > 19.5 µM (inactive)
9 | O=C1C(Nc2ccccc2)=C/C(=N/S(=O)(=O)c2cccs2)c2ccccc21 | 9.58 µM
10 | CC(C)(C)C(=O)NC(=S)NNC(=O)c1sc2ccccc2c1Cl | > 19.5 µM (inactive)
11 | COc1ccc(OC)c2c1C(=O)C(Cl)=C(Cl)C2=O | 2.29 µM
12 | Cc1cc(Nc2ccc3c(c2)OCCO3)c2cc(Cl)ccc2n1 | > 19.5 µM (inactive)
13 | CCCCN(C(=O)COc1ccc(C)cc1OC)c1c(N)n(CCC)c(=O)[nH]c1=O | > 19.5 µM (inactive)
14 | CCOC(=O)c1c(N)sc2c(O)c(Br)ccc12 | > 19.5 µM (inactive)
15 | CC[C@H]1CN2CCc3cc(OC)c(OC)cc3[C@@H]2C[C@@H]1C[C@H]1NCCc2cc(OC)c(OC)cc21 | 0.549 µM
16 | Cc1[nH]c2ccccc2c1/C=C/c1nc2ccccc2c(=O)n1-c1cccc([N+](=O)[O-])c1 | > 19.5 µM (inactive)
17 | CC(Nc1ncnc2sccc12)c1ccccc1 (stereo unspecified) | 0.349 µM
18 | N#Cc1cccc(C#N)c1Oc1ccc(S(=O)(=O)Nc2ccc(Cl)cc2)cc1 | 18.8 µM
19 | CCc1ccccc1NC(=O)CSc1nnc(-c2ccncc2)o1 | > 19.5 µM (inactive)
20 | NC(=O)c1sc2nc3c(c(-c4cccs4)c2c1N)CCCCC3 | 0.404 µM
21 | CCOC(=O)c1sc(NC(=O)CSc2n[nH]c(-c3ccccc3)n2)c(C#N)c1C | 14.6 µM
22 | CC(C)(C)c1ccc2c(c1)OC(C(=O)N/N=C\c1ccc[nH]1)CO2 (stereo unspecified) | 0.182 µM

Row | Structure (SMILES) | AC50
23 | Cc1nc2c(-c3ccccc3)cnn2c(N)c1-c1ccccc1 | > 19.5 µM (inactive)
24 | COc1cccc(CN(C)CC(=O)Nc2cccc(C(F)(F)F)c2)c1OC | 18.8 µM
25 | CCOC(=O)COc1ccccc1/C=C\[N+](=O)[O-] | 5.63 µM
26 | CCN(CC)c1ncnc2ccc(Br)cc12 | 19.9 µM
27 | Cc1ccccc1NC(=O)COC(=O)c1ccc(S(C)(=O)=O)c([N+](=O)[O-])c1 | 18.3 µM
28 | COc1ccc(C)cc1NS(=O)(=O)c1ccc(-c2cnc(C3CC3)o2)cc1 | 2.11 µM
29 | CC(C)(C)c1nn(-c2ccccc2)c2[nH]c(=O)c(CNc3ccc4c(c3)OCCO4)cc12 | > 19.5 µM (inactive)
30 | O=c1c(Cl)c(Cl)cnn1-c1ccccc1 | 14.4 µM
31 | Cc1oc2c(c1C(=O)NCc1cccnc1)C(=O)c1ccccc1C2=O | 0.891 µM
32 | CC1CC(C)CN(C(=O)c2ccc(CSc3nc4ccncc4[nH]3)cc2)C1 (stereo unspecified) | 13.3 µM
33 | Fc1ccc(-n2cc(-c3ccccc3)c3c(N4CCOCC4)ncnc32)cc1 | 6.34 µM
34 | CC1=NNC(=O)/C1=C\c1cn(-c2ccccc2)nc1-c1ccc(Cl)cc1 | 17.4 µM
35 | Cc1ccc(S(=O)(=O)N2CCN(CC(=O)N/N=C\c3ccncc3)CC2)cc1 | > 19.5 µM (inactive)
36 | CN(C)c1ccc(CNc2ccc3c(c2)ncn3C(C)(C)C)cc1 | > 19.5 µM (inactive)
37 | COc1ccc(CNC(=O)c2cnc3scc(C)n3c2=O)cc1 | > 19.5 µM (inactive)
38 | CCCCn1c(C(C)NC(=O)CC)nc2ccccc21 (stereo unspecified) | > 19.5 µM (inactive)
39 | COc1ccc(OCc2cccc(C(=O)Nn3cc([N+](=O)[O-])cn3)c2)cc1 | 9.72 µM
40 | CC1(C)C[C@H]2C=C(C=O)[C@]3(C=O)C[C@]3(C)[C@H]2C1 | 17.9 µM
41 | CCN(CC)S(=O)(=O)c1ccc2c(c1)c(=O)c(C(=O)NCc1ccco1)cn2C | > 19.5 µM (inactive)
42 | COc1ccc(NC(=O)CSc2nnc3ccc(-c4ccncc4)nn23)cc1OC | > 19.5 µM (inactive)
43 | O=C(CNC(=S)N(CCCN1CCOCC1)Cc1cccs1)NCc1ccccc1Cl | > 19.5 µM (inactive)
44 | COC(=O)/C(=C1/Oc2cc(C)oc(=O)c2S1)C(F)(F)F | 1.5 µM

Row | Structure (SMILES) | AC50
45 | CCOCCn1c(SCC(=O)OCc2ccccc2)nc2c1c(=O)[nH]c(=O)n2C | > 19.5 µM (inactive)
46 | COc1ccc2[nH]c3c(=O)n(CCCN4CCOCC4)cnc3c2c1 | > 19.5 µM (inactive)
47 | CC1CCCCN1CC(=O)Nc1ccccc1Sc1ccccc1 (stereo unspecified) | 15.1 µM
48 | O=C(CCl)N(c1ccccc1)C1CCCCC1 | 4.93 µM
49 | CCc1cc(C)cc(OCCNC(=O)c2cncc(Br)c2)c1 | > 19.5 µM (inactive)
50 | CCS(=O)(=O)c1ncc(Cl)c(C(=O)Nc2ccc(S(=O)(=O)N3CCC(C)CC3)cc2)n1 | 16.2 µM
51 | O=C(CCl)Nc1ccc(Sc2ccc(NC(=O)CCl)cc2)cc1 | 18.3 µM
52 | O=C(NCc1ccncc1)C(=O)Nc1nc(C23CC4CC(CC(C4)C2)C3)cs1 | 12 µM
53 | CN=C1S/C(=C\c2cc(C)n(-c3ccccc3F)c2C)C(=O)N1C | 16.5 µM
54 | COc1ccc(NCc2nnc(SCC(=O)Nc3cc(C(F)(F)F)ccc3Cl)o2)cc1 | > 19.5 µM (inactive)
55 | CCOc1cc(/C=N/NC(=O)c2cccc(S(=O)(=O)N3CCOCC3)c2)ccc1OCC(=O)N(C)C | > 19.5 µM (inactive)
56 | COc1ccccc1N(C)S(=O)(=O)c1ccc(C(=O)NC(C)c2ccccc2)cc1 (stereo unspecified) | > 19.5 µM (inactive)
57 | CC1C/C(=N/Nc2nc3ccccc3[nH]2)CC(C)(C)C1 (stereo unspecified) | > 19.5 µM (inactive)
58 | COc1cc2c(cc1OC)C(c1ccc(-c3ccc(Cl)c(Cl)c3)o1)=NCC2 | 18.8 µM
59 | CCOc1ccc(NCC(=O)c2ccc(C)cc2)cc1 | 12.7 µM
60 | O=C(C#Cc1ccccc1)c1ccco1 | 4.11 µM
61 | CCOC(=O)c1c(C)[nH]c2c1-c1ccccc1C(=O)C2=O | 1.07 µM
62 | COc1ccccc1NC(=O)c1nc(S(=O)(=O)Cc2ccccc2)ncc1Cl | 4.02 µM
63 | CC(=O)OCCCNc1cc(Sc2ccc(C)cc2)c2nonc2c1[N+](=O)[O-] | 18.7 µM
64 | Cc1occc1C(=O)Nc1cc(C(F)(F)F)ccc1Cl | > 19.5 µM (inactive)
65 | C#CC(=O)N(c1cc(OC)ccc1OC)C(C(=O)NC1CCCC1)c1cccs1 (stereo unspecified) | 5.39 µM
66 | O=C(N/N=C/c1ccc[nH]1)c1ccc(COc2cccc3cccnc23)cc1 | 0.821 µM

Row | Structure (SMILES) | AC50
67 | S=C1Cc2ccccc2N1 | 2.46 µM
68 | O=C(Nc1nnc(S(=O)(=O)N2CCCCCC2)s1)c1cccc(Br)c1 | 0.889 µM
69 | O=C(Nc1nc(-c2cccs2)cs1)c1cccc(S(=O)(=O)N2CCCCCC2)c1 | 0.674 µM
70 | CC1(C)CC(NC(=O)COc2ccccc2Cl)CC(C)(C)N1 | > 19.5 µM (inactive)
71 | Nc1ncnc2c1ccn2[C@@H]1O[C@H](CO)[C@@H](O)[C@H]1O | 3.17 µM
72 | CCOC(=O)c1ccc(-n2[nH]c(-c3ccccc3)cc2=O)cc1 | 4.13 µM
73 | Cc1ccc(NC2=C/C(=N\S(=O)(=O)c3cccs3)c3ccccc3C2=O)c(C)c1 | 1.51 µM
74 | Cc1ccc(-n2ncc(Br)c(Br)c2=O)cc1 | 18.3 µM
75 | Cc1cc(C)nc(NNC2=CC(=[N+]3CCCCC3)CC(C)(C)C2)n1 | 14.5 µM
76 | CC1CCc2nc(N)c(C#N)c(-c3cccnc3)c2C1 (stereo unspecified) | 0.708 µM
77 | COc1ccc(N2CCN(C(CNC(=O)C(=O)NCc3ccncc3)c3ccco3)CC2)cc1 (stereo unspecified) | > 19.5 µM (inactive)
78 | CC(=O)c1cn(CC(=O)Nc2ccccc2C)c2ccccc12 | 2.59 µM
79 | CCCS(=O)(=O)N1CCc2cc(OC)c(OC)cc2C1 | > 10 µM (inactive)
80 | NNC(=O)c1ccc(N2CCc3ccccc32)c([N+](=O)[O-])c1 | > 19.5 µM (inactive)
81 | N#CC1=C(N)Oc2cc(N)ccc2C1c1ccccc1Cl (stereo unspecified) | > 19.5 µM (inactive)
82 | COc1cccc(-c2nnc3n2N=C(C(C)(C)C)CS3)c1 | 0.484 µM
83 | CCn1c(SCC(=O)Nc2oc(C)c3c(C)n[nH]c(=O)c23)nc2sc(C)c(C)c2c1=O | > 19.5 µM (inactive)
84 | Cn1c(C(C#N)C(=O)c2sc3ccccc3c2Cl)nc2ccccc21 (stereo unspecified) | > 19.5 µM (inactive)
85 | O=C(CCl)Nc1cn(-c2ccccc2)nc1-c1ccc(F)cc1 | 5.82 µM
86 | CCc1ccc(C2=NNC(=Nc3cccc(S(=O)(=O)N(C)C)c3)SC2)cc1 | 2 µM
87 | O=C(NCc1ccc2c(c1)OCO2)c1nc(S(=O)(=O)Cc2ccccc2)ncc1Cl | 16.1 µM
88 | O=S(=O)(c1ccc2c(c1)C(=NO)c1cc(S(=O)(=O)N3CCCCC3)ccc1-2)N1CCCCC1 | 2.9 µM

Row | Structure (SMILES) | AC50
89 | Nc1nc(F)nc2c1ncn2[C@@H]1O[C@H](CO)[C@@H](O)[C@H]1O | 0.981 µM
90 | Cc1cc(C)c(NC(=O)CSc2nncn2-c2cccnc2)c(C)c1 | > 19.5 µM (inactive)
91 | O=C(O)c1ccc(NC2=C(Cl)C(=O)c3ccccc3C2=O)cc1 | 18.6 µM
92 | NC(=O)c1cc2ccncc2c2ccccc12 | 0.805 µM
93 | Cc1ccc(C)c(NC(=O)CCc2nnc3ccc(NCc4ccco4)nn23)c1 | > 19.5 µM (inactive)
94 | CC12CCC(C/C1=N\N=C1\NC(=O)/C(=C\c3ccc(Cl)cc3)S1)C2(C)C (stereo unspecified) | 1.82 µM
95 | CCOC(=O)Cc1nnc2c(Nc3ccccc3F)nc3nonc3n12 | 2.32 µM
96 | O=c1c2ccc(Cl)cc2nc(-c2cccc(C(F)(F)F)c2)n1O | 18.2 µM
97 | COc1ccc(S(=O)(=O)N2CCCCCC2)cc1C(=O)OCC(=O)NC(C)(C)C | > 19.5 µM (inactive)
98 | Cc1nn(C(C)(C)C)c(C)c1/C=N/OC(=O)Nc1ccc(Cl)c(Cl)c1 | > 19.5 µM (inactive)
99 | CCc1ccc(C(=O)Cn2ncc(Cl)c(Cl)c2=O)cc1 | 18.6 µM
100 | CCSc1nnc(NC(=O)C(Cc2ccccc2)n2cccc2)s1 (stereo unspecified) | > 19.5 µM (inactive)
101 | CCCC(=O)N1CCN(c2ccc(NC(=O)c3cc4ccccc4o3)cc2Cl)CC1 | 13.1 µM
102 | O=C(NCCN1CCCCC1)Nc1ccccc1Cl | > 19.5 µM (inactive)
103 | CN=c1scc(-c2ccco2)n1/N=C/c1ccc(O)c(O)c1 | 3.01 µM
104 | COC(=O)c1c(N2C(=O)[C@H]3[C@@H](C2=O)[C@]2(C(=O)Nc4c(C)cccc42)N2CCC[C@@H]32)sc(C)c1C | > 19.5 µM (inactive)
105 | CCOC(=O)/C(=C\c1ccc([N+](=O)[O-])cc1)C(=O)c1cc(C(C)=O)c(Nc2ccccc2)s1 | 6.97 µM
106 | Cc1cc([N+](=O)[O-])c2ccccc2[n+]1[O-] | 15.6 µM
